Data on eight compounds can be found in patent publication US20260256925A1, “INDAZOLE DERIVATIVES AS ESTROGEN RECEPTOR DEGRADERS” (REGENTS OF THE UNIVERSITY OF MICHIGAN, priority 2022, published 2026).

Usually IC50 stands for the concentration that inhibits the measured activity by half. A low value points to higher potency. The term Dmax denotes the largest share of the target that was removed. In general, DC50 refers to the midpoint of the concentration-degradation curve.

Assay [1] concerns the target T1, CRBN/DDB1 (Homo sapiens, UniProt Q96SW2).
T1 construct: purchased Wuxi RP210521GA
Format: binding. To be noted: HTRF, Cy5-labeled Thalidomide probe. Here is the method: The binding potency was determined using HTRF assay technology (Perkin Elmer). Compounds were serially diluted in DMSO and 0.2 μL volume was transferred to white 384-well plate.
A general note: Time-resolved FRET reads energy transfer from a long-lived donor to a nearby acceptor.

Assay [2] addresses T2, ER (Homo sapiens, UniProt P03372).
T2 construct: endogenous in cells; probably T47D or MCF-7
T2 sequence (P03372 1-595): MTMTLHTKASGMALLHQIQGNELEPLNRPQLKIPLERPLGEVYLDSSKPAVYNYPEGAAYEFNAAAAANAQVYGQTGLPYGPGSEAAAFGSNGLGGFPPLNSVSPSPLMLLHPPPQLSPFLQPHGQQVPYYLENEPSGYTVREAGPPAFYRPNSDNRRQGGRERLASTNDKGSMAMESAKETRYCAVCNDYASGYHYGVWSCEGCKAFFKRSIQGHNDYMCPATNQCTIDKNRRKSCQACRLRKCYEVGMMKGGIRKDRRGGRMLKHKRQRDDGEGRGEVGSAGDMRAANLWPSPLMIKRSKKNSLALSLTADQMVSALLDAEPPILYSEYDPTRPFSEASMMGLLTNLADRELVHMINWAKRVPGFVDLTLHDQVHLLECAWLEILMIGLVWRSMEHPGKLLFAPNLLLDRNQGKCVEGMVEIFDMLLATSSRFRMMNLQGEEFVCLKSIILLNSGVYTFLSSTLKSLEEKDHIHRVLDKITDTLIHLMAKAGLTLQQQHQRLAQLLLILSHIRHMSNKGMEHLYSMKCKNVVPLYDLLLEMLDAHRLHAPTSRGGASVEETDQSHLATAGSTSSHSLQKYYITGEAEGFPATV
Description: In-cell Western (ICW) ER degradation assay in MCF-7 cells. The note with it: 16 hrs; for Dmax: MCF7, MCF-7 cells, read-out: ER MCF7 ICW Dmax (%); for DC50: read-out: ER MCF7 ICW DC50. Format: cell-based. Here is the method:
(§1) ERa degradative activity of compounds can be assessed in MCF-7 and T47D Cells. MCF-7 and T47D cell are seeded and are subsequently treated with the compounds at certain concentrations (e.g., 0.02 to 300 nM). DMSO can be used as vehicle control. Cells are fixed and are blocked with Intercept (PBS) Blocking Buffer (e.g., Li—COR, Odyssey Blocking Buffer), and are stained with ER (e.g., 1:500, Cell signaling) primary antibody for overnight at cold room. Secondary Antibody (e.g., IRDye 800CW Goat anti-Rabbit IgG) and CellTag 700 Stain are added in Intercept (PBS) Blocking Buffer. Finally, cell plate is placed in incubator to dry. Image and signal are captured on Odyssey® DLx Imaging System.
(§2) In-cell Western (ICW) assays in MCF-7 and T47D cell lines.
(§3) Procedures for ICW assays
(§4) In vitro Assay: MCF-7 and T47D ICW assay
(§5) Day 3: After 16 hrs of compounds treatment, cells were fixed by 4% PFA and permeabilized with elution buffer (0.1% Triton X-100 in 1% PBS Solution). Subsequently, cells were blocked with Intercept (PBS) Blocking Buffer (Li—COR, Odyssey Blocking Buffer), and were stained with ER (1:500, Cell signaling) primary antibody for overnight at cold room.
(§6) Day 4: Remove the buffer, add IRDye 800CW Goat anti-Rabbit IgG Secondary Antibody (1:2000) and CellTag 700 Stain (1:500) in Intercept (PBS) Blocking Buffer. Finally, cell plate is placed in incubator to dry. Image and signal were captured on Odyssey® DLx Imaging System.

The target in assay [3] is T2, ER. Put plainly: In-cell Western (ICW) ER degradation assay in T47D cells. Format: cell-based. The note with it: T47D cells, 16 hrs; for Dmax: T47D, read-out: ER T47D ICW Dmax (%). The protocol: as §1, §2, §3, §4, §5, §6

T1 sequence (Q96SW2 whole entry): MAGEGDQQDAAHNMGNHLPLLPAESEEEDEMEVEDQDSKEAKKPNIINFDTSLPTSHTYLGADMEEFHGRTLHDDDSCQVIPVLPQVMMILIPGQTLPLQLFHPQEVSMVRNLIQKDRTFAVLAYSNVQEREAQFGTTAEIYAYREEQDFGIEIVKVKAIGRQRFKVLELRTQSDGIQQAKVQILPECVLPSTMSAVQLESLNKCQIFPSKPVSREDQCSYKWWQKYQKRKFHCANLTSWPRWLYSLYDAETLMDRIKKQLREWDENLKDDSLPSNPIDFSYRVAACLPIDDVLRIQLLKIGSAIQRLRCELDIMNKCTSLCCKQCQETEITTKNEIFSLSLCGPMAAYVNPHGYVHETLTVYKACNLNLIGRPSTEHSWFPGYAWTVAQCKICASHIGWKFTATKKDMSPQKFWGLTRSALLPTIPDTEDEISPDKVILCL
T1 sequence (Q16531 whole entry partner): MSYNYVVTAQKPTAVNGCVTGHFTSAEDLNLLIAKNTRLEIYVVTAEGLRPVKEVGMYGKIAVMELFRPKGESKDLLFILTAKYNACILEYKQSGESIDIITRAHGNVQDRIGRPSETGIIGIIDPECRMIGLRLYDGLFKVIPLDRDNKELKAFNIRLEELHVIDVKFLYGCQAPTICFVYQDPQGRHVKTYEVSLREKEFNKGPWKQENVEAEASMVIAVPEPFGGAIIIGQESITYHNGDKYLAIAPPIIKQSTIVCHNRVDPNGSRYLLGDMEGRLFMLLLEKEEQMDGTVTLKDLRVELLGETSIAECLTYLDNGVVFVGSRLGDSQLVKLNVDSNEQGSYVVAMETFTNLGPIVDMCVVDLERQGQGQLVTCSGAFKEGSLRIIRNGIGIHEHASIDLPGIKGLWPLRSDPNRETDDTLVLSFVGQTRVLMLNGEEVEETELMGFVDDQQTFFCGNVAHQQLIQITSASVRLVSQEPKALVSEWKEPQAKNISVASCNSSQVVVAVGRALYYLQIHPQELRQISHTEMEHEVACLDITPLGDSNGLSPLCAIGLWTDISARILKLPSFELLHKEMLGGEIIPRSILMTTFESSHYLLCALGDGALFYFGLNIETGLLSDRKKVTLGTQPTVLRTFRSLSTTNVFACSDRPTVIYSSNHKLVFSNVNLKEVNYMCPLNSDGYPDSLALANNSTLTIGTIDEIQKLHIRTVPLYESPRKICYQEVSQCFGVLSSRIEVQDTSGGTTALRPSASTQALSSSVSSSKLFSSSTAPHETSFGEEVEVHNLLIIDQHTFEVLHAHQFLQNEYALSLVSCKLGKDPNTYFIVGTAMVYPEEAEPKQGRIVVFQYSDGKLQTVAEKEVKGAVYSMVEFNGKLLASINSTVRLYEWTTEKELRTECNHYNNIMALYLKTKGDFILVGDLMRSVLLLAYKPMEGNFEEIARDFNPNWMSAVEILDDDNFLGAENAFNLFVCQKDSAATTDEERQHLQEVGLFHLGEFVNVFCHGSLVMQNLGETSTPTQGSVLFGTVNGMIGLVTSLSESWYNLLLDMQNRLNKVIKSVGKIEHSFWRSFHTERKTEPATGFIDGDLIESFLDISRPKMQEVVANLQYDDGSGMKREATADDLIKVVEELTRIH

In assay [1], `C[C@H]1Cc2c(ccc3[nH]ncc23)[C@H](c2ccc(N3CCC4(CC3)CC(CN3CCC(c5ccc(NC6CCC(=O)NC6=O)cc5)CC3)C4)cn2)N1CC(F)(F)F` (stereo in doubt) [Compound A10, 3-((4-(1-((7-(6-((6R,8S)-8-methyl-7-(2,2,2-trifluoroethyl)-6,7,8,9-tetrahydro-3H-pyrazolo[4,3-f]isoquinolin-6-yl)pyridin-3-yl)-7-azaspiro[3.5]nonan-2-yl)methyl)piperidin-4-yl)phenyl)amino)piperidine-2,6-dione] came in with an IC50 of 50 to 500 nM. The Dmax in assay [2] and in assay [3] was 50 to 75% each time. Besides, the DC50 in assay [2] (MCF-7 cells) and in assay [3] was < 1 nM in each case.
On to `C[C@H]1Cc2c(ccc3[nH]ncc23)[C@H](c2ccc(N3CCC4(CC3)CC(CN3CCN5c6cc7c(cc6OC[C@@H]5C3)C(=O)N([C@@H]3CCC(=O)NC3=O)C7)C4)cn2)N1CC1(F)CC1` (stereo in doubt) [Compound A13, (R)-3-((S)-3-((7-(6-((6R,8S)-7-((1-fluorocyclopropyl)methyl)-8-methyl-6,7,8,9-tetrahydro-3H-pyrazolo[4,3-f]isoquinolin-6-yl)pyridin-3-yl)-7-azaspiro[3.5]nonan-2-yl)methyl)-8-oxo-1,2,3,4,4a,5,8,10-octahydro-9H-pyrazino[1′,2′:4,5][1,4]oxazino[2,3-f]isoindol-9-yl)piperidine-2,6-dione], for which the IC50 in assay [1] was < 50 nM. In addition, the Dmax in assay [2] was 25 to 50%; in assay [3], 50 to 75%. For the same compound, the DC50 in assay [2] (MCF-7 cells) and in assay [3] was < 1 nM in each case.
For `C[C@H]1Cc2c(ccc3[nH]ncc23)[C@@H](c2ccc(N3CC4(CCC(CN5CCN6c7ccc8c(c7OC[C@@H]6C5)CN([C@@H]5CCC(=O)NC5=O)C8=O)CC4)C3)nc2)N1CC(F)(F)F` (stereo in doubt) [Compound A18, (R)-3-((S)-7-((2-(5-((6S,8S)-8-methyl-7-(2,2,2-trifluoroethyl)-6,7,8,9-tetrahydro-3H-pyrazolo[4,3-f]isoquinolin-6-yl)pyridin-2-yl)-2-azaspiro[3.5]nonan-7-yl)methyl)-1-oxo-1,3,5,5a,6,7,8,9-octahydro-2H-pyrazino[1′,2′:4,5][1,4]oxazino[2,3-e]isoindol-2-yl)piperidine-2,6-dione], the IC50 in assay [1] lay in the range of 50 to 500 nM. In addition, the maximal degradation (Dmax) in assay [2] and in assay [3] was 50 to 75% each time. In addition, the 50% degradation concentration (DC50) in assay [2] (MCF-7 cells) and in assay [3] was 1 to 10 nM throughout.
Take `C[C@H]1Cc2c(ccc3[nH]ncc23)[C@@H](c2ccc(N3CCC(CN4CCN5c6cc7c(cc6OC[C@H]5C4)C(=O)N([C@@H]4CCC(=O)NC4=O)C7)CC3)nc2)N1CC(F)(F)F` (stereo in doubt) [Compound A20, (R)-3-((R)-3-((1-(5-((6S,8S)-8-methyl-7-(2,2,2-trifluoroethyl)-6,7,8,9-tetrahydro-3H-pyrazolo[4,3-f]isoquinolin-6-yl)pyridin-2-yl)piperidin-4-yl)methyl)-8-oxo-1,2,3,4,4a,5,8,10-octahydro-9H-pyrazino[1′,2′:4,5][1,4]oxazino[2,3-f]isoindol-9-yl)piperidine-2,6-dione]: in assay [1], the IC50 is < 50 nM. Moreover, the values for the Dmax in assay [2] and in assay [3] were 25 to 50% and 50 to 75%, respectively. In addition, the half-maximal degradation concentration (DC50) in assay [2] (MCF-7 cells) and in assay [3] was 10 to 100 nM throughout.
`C[C@H]1Cc2c(ccc3[nH]ncc23)[C@H](c2ccc(N3CCC4(CC3)CC(CN3CCN(c5ccc(C(=O)NC6CCC(=O)NC6=O)nc5)CC3)C4)cn2)N1CC(F)(F)F` (stereo in doubt) [Compound A9, N-(2,6-dioxopiperidin-3-yl)-5-(4-((7-(6-((6R,8S)-8-methyl-7-(2,2,2-trifluoroethyl)-6,7,8,9-tetrahydro-3H-pyrazolo[4,3-f]isoquinolin-6-yl)pyridin-3-yl)-7-azaspiro[3.5]nonan-2-yl)methyl)piperazin-1-yl)picolinamide]: the half-maximal inhibitory concentration (IC50) in assay [1] fell in the range of 50 to 500 nM. The greatest degradation seen (Dmax) in assay [2] and in assay [3] was 50 to 75% throughout. Besides, the DC50 in assay [2] (MCF-7 cells) and in assay [3] was < 1 nM in each case.
For the compound `C[C@@H]1Cc2c(ccc3[nH]ncc23)[C@@H](c2ccc(N3CCC4(CC3)CC(CN3CCN5c6cc7c(cc6OC[C@H]5C3)C(=O)N([C@@H]3CCC(=O)NC3=O)C7)C4)cn2)N1CC1(F)CC1` [Compound A14, (R)-3-((R)-3-((7-(6-((6S,8R)-7-((1-fluorocyclopropyl)methyl)-8-methyl-6,7,8,9-tetrahydro-3H-pyrazolo[4,3-f]isoquinolin-6-yl)pyridin-3-yl)-7-azaspiro[3.5]nonan-2-yl)methyl)-8-oxo-1,2,3,4,4a,5,8,10-octahydro-9H-pyrazino[1′,2′:4,5][1,4]oxazino[2,3-f]isoindol-9-yl)piperidine-2,6-dione], the IC50 in assay [1] is 50 to 500 nM. Further, the Dmax in assay [2] was 50 to 75%; in assay [3], > 75%. The DC50 in assay [2] (MCF-7 cells) and in assay [3] was < 1 nM throughout.
Turning to `C[C@@H]1Cc2c(ccc3[nH]ncc23)[C@@H](c2c(F)cc(N3CCC(CN4CCN5c6ccc7c(c6OC[C@@H]5C4)CN(C4CCC(=O)NC4=O)C7=O)CC3)cc2F)N1CC(F)F` (stereo partly drawn) [Compound A2, 3-((S)-7-((1-(4-((6S,8R)-7-(2,2-difluoroethyl)-8-methyl-6,7,8,9-tetrahydro-3H-pyrazolo[4,3-f]isoquinolin-6-yl)-3,5-difluorophenyl)piperidin-4-yl)methyl)-1-oxo-1,3,5,5a,6,7,8,9-octahydro-2H-pyrazino[1′,2′:4,5][1,4]oxazino[2,3-e]isoindol-2-yl)piperidine-2,6-dione], the IC50 in assay [1] lay in the range of 50 to 500 nM. The Dmax in assay [2] and in assay [3] was 50 to 75% throughout. Moreover, the half-maximal degradation concentration (DC50) in assay [2] (MCF-7 cells) and in assay [3] was < 1 nM in each case.
In assay [1], “(S)-3-((R)-7-((1-(5-((6S,8R)-8-methyl-7- (2,2,2-trifluoroethyl)-6,7,8,9-tetrahydro-3H- pyrazolo[4,3-f]isoquinolin-6-yl)pyridin-2- yl)piperidin-4-yl)methyl)-1-oxo- 1,3,5,5a,6,7,8,9-octahydro-2H- pyrazino[1′,2′:4,5][1,4]oxazino[2,3-c]isoindol- 2-yl)piperidine-2,6-dione [Compound A23]” showed an IC50 of 500 to 5000 nM. Further, in assay [2] (MCF-7 cells), the “ER MCF7 ICW Dmax (%)” value is “B (“B”: >50% and <75%)”; the half-maximal degradation concentration (DC50) was in the range of 1 to 10 nM. Further, in assay [3], the DC50 is 1 to 10 nM; the “ER T47D ICW Dmax (%)” value is “B (“B”: >50% and <75%)”.
